Reference: paper PMC10382584, “Macrocyclization of linear molecules by deep learning to facilitate macrocyclic drug candidates discovery” (Nature Communications, 2023)

Tests used:
Test in all cases: biochemical
Set-up in all cases: DiscoveRx KINOMEscan competition binding, percent of DMSO control signal at 100 nM
Settings in all cases: read-out: Fig. 4a / Percent Control / Compound 1; percent of DMSO control, competition binding
CLK3 = CLK3 (Homo sapiens, UniProt P49761)
FLT3 = FLT3 (Homo sapiens, UniProt P36888)
JNK1 = molecular target: T1, JNK1 (Homo sapiens, UniProt P45983)
T1 construct: gene MAPK8

MAP4K5 = MAP4K5 (Homo sapiens, UniProt Q9Y4K4)
[1] = molecular target: EGFR(L747-E749del, A750P) (Homo sapiens, UniProt P00533, A750P/DEL747-749)
FRK = FRK (Homo sapiens, UniProt P42685)
KIT(D816H) = KIT(D816H) (Homo sapiens, UniProt P10721, D816H)
EPHB3 = EPHB3 (Homo sapiens, UniProt P54753)
Sequence of EPHB3 (P54753 whole entry): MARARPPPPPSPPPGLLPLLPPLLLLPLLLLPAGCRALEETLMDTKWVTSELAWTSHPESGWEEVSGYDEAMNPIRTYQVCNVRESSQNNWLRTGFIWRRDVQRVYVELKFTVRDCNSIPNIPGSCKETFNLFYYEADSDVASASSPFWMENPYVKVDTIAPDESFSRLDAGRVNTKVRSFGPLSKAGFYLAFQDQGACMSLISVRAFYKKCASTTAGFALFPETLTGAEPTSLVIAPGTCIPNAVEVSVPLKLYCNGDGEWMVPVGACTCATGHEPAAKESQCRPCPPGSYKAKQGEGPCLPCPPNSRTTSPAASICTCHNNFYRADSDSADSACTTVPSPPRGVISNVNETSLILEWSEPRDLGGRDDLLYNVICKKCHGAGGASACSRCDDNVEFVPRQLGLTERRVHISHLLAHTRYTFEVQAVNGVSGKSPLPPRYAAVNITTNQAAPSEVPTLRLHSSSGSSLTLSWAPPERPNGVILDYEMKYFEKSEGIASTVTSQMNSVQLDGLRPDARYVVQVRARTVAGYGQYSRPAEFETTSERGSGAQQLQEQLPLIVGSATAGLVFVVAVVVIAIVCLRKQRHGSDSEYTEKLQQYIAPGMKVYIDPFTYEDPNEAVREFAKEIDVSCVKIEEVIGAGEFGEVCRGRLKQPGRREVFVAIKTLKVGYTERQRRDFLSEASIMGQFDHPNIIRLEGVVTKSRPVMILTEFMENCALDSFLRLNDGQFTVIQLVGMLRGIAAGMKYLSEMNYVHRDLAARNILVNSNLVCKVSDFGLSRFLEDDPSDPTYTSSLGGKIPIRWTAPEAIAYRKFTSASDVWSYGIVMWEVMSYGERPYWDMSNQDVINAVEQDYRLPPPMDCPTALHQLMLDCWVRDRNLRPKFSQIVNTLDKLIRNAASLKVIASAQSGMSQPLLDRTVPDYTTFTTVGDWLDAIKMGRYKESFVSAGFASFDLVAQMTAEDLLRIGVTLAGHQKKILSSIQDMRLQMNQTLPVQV

CDK5 = CDK5 (Homo sapiens, UniProt Q00535)
RIOK2 = RIOK2 (Homo sapiens, UniProt Q9BVS4)
TSSK1B = TSSK1B (Homo sapiens, UniProt Q9BXA7)
Sequence of TSSK1B (Q9BXA7 whole entry): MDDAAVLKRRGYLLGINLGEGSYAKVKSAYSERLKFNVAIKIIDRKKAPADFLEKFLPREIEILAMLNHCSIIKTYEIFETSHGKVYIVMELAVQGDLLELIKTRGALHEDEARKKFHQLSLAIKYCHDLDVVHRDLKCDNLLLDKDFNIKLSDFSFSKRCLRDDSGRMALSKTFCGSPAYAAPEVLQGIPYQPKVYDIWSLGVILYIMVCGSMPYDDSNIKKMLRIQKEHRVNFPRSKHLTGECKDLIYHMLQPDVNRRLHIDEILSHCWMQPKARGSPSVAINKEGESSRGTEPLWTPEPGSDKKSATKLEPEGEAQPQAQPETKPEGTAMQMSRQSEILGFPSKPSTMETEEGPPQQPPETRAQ

EPHB1 = EPHB1 (Homo sapiens, UniProt P54762)
Sequence of EPHB1 (P54762 whole entry): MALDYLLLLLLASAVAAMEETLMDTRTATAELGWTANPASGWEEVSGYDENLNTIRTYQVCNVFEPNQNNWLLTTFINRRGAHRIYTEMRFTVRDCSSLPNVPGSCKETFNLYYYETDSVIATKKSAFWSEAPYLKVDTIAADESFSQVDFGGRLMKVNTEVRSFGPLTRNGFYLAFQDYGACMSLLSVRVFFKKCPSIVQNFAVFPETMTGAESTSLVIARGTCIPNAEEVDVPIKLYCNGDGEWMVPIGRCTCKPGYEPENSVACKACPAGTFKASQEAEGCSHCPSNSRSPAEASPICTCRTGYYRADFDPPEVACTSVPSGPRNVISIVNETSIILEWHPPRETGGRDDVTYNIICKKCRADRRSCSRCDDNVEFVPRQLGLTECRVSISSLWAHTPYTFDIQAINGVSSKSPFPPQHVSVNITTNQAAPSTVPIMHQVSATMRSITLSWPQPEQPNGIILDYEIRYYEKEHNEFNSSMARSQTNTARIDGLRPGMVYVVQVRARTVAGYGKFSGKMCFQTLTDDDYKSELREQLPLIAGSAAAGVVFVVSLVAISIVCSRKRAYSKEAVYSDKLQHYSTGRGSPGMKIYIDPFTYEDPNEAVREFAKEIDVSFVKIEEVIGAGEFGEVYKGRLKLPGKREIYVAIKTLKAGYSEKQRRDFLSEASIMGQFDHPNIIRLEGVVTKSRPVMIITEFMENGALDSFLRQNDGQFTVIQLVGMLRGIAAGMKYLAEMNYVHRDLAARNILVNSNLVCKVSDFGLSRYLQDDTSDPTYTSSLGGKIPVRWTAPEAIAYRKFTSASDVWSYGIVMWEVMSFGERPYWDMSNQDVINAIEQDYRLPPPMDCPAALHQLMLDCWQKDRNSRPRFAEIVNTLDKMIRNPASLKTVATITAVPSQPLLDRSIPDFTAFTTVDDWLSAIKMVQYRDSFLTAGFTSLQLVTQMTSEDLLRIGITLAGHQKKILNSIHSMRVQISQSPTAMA

NEK5 = NEK5 (Homo sapiens, UniProt Q6P3R8)
Sequence of NEK5 (Q6P3R8 whole entry): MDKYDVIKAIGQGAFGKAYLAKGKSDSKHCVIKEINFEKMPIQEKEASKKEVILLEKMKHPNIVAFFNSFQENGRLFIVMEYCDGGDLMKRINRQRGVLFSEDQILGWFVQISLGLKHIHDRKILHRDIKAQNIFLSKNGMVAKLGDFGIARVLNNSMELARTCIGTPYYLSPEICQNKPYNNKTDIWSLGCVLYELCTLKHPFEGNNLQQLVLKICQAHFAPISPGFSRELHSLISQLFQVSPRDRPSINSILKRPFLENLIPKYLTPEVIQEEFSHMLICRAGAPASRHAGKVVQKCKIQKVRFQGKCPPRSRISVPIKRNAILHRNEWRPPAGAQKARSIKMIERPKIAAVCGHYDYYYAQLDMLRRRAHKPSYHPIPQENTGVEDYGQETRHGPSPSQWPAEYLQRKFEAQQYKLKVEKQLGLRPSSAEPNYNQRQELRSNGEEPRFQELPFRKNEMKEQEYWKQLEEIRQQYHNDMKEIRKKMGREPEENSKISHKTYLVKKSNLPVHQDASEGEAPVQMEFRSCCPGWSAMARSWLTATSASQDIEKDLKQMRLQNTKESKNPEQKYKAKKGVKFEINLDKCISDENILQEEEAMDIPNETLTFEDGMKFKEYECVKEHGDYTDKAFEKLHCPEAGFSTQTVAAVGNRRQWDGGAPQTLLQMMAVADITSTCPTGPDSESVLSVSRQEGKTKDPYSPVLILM

MYO3A = MYO3A (Homo sapiens, UniProt Q8NEV4)
[2] = molecular target: T2, ABL1(T315I)-phosphorylated (Homo sapiens, UniProt P00519, T315I)
T2 construct: phosphorylated

PDPK1 = PDPK1 (Homo sapiens, UniProt O15530)
GRK7 = GRK7 (Homo sapiens, UniProt Q8WTQ7)
QSK = molecular target: T3, QSK (Homo sapiens, UniProt Q9Y2K2)
T3 construct: gene SIK3

TNIK = TNIK (Homo sapiens, UniProt Q9UKE5)
CSNK1E = CSNK1E (Homo sapiens, UniProt P49674)
BRSK2 = BRSK2 (Homo sapiens, UniProt Q8IWQ3)
MAP3K2 = MAP3K2 (Homo sapiens, UniProt Q9Y2U5)
Sequence of MAP3K2 (Q9Y2U5 whole entry): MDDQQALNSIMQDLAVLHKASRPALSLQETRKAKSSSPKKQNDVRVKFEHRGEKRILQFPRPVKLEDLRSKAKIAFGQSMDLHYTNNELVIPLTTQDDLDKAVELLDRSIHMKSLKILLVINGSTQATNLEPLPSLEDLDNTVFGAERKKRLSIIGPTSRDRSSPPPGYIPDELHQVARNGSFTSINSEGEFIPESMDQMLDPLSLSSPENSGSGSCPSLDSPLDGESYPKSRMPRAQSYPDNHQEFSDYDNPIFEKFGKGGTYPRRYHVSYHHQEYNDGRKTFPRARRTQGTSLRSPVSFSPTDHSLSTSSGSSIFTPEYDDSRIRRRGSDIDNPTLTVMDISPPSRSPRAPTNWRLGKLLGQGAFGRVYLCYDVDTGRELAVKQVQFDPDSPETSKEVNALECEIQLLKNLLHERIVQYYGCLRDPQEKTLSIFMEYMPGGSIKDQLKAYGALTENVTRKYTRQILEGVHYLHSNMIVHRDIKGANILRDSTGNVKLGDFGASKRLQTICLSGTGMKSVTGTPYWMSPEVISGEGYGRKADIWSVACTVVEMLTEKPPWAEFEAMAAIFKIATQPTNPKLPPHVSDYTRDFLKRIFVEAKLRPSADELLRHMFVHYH

IKK-alpha = molecular target: T4, IKK-alpha (Homo sapiens, UniProt O15111)
T4 construct: gene CHUK
T4 sequence (O15111 whole entry): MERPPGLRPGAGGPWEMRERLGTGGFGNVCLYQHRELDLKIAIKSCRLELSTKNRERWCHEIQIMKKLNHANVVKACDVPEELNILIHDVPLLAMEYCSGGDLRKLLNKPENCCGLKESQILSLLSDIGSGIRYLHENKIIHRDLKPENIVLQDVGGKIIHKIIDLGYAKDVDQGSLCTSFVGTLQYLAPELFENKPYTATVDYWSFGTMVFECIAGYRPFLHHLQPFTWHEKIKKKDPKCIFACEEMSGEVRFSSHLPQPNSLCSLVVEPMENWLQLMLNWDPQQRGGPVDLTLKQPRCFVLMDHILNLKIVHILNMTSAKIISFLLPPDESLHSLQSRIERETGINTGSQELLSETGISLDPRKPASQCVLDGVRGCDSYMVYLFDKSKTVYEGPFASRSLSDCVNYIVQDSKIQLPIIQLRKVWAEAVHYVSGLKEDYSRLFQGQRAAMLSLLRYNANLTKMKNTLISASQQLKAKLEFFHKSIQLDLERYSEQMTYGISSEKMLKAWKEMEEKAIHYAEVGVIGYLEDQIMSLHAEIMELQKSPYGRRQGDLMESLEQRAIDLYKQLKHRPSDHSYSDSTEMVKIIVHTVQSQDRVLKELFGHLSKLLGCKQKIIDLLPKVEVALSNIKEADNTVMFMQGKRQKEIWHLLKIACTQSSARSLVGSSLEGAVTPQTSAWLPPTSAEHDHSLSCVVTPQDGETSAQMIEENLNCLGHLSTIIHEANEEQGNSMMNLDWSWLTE

p38-delta = molecular target: T5, p38-delta (Homo sapiens, UniProt O15264)
T5 construct: gene MAPK13

PCTK2 = molecular target: T6, PCTK2 (Homo sapiens, UniProt Q00537)
T6 construct: gene CDK17
T6 sequence (Q00537 whole entry): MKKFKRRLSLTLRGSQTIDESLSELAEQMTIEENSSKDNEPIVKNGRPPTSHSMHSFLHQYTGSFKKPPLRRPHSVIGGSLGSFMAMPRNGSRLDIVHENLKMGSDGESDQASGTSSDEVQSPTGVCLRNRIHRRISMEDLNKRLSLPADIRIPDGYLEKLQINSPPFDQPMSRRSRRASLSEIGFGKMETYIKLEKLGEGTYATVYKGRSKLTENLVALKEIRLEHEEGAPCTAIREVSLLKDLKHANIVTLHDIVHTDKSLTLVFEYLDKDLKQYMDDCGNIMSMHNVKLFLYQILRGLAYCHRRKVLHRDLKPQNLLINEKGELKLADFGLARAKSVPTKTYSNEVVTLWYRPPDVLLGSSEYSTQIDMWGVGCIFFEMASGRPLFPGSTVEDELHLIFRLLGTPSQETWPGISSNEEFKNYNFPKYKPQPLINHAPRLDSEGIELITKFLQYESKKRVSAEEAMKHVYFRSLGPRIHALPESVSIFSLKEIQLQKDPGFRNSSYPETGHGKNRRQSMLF
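Also: KINOMEscan kinase panel binding assay, signal normalized between DMSO as 100% and a positive control compound as 0%.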

Structure (SMILES): Cc1cnc2nc1Nc1cccc(c1)COCc1cc(ccc1OCCN1CCCC1)N2 [Compound 1]
- remaining binding at 0.1 µM (CLK3): 100%
- remaining binding at 0.1 µM (FLT3): 36%
- remaining binding at 0.1 µM (JNK1): 50%
- remaining binding at 0.1 µM (MAP4K5): 98%
- remaining binding at 0.1 µM [1]: 88%
- remaining binding at 0.1 µM (FRK): 84%
- remaining binding at 0.1 µM (KIT(D816H)): 60%
- remaining binding at 0.1 µM (EPHB3): 100%
- remaining binding at 0.1 µM (CDK5): 100%
- remaining binding at 0.1 µM (RIOK2): 84%
- remaining binding at 0.1 µM (TSSK1B): 92%
- remaining binding at 0.1 µM (EPHB1): 97%
- remaining binding at 0.1 µM (NEK5): 93%
- remaining binding at 0.1 µM (MYO3A): 100%
- remaining binding at 0.1 µM [2]: 49%
- remaining binding at 0.1 µM (PDPK1): 98%
- remaining binding at 0.1 µM (GRK7): 93%
- remaining binding at 0.1 µM (QSK): 63%
- remaining binding at 0.1 µM (TNIK): 80%
- remaining binding at 0.1 µM (CSNK1E): 70%
- remaining binding at 0.1 µM (BRSK2): 94%
- remaining binding at 0.1 µM (MAP3K2): 50%
- remaining binding at 0.1 µM (IKK-alpha): 96%
- remaining binding at 0.1 µM (p38-delta): 100%
- remaining binding at 0.1 µM (PCTK2): 98%
